Experimental data from the NIST ThermoML archive (doi:10.1016/j.jct.2016.08.034).
Numbers after ± are expanded uncertainties.

Conditions: Crystal; DTA

Normal melting temperature: 153.13 ± 1.1 °C
SMILES: C=CC(=O)N1CCC[C@@H](n2nc(-c3ccc(Oc4ccccc4)cc3)c3c(N)ncnc32)C1 [Ibrutinib]
